The values below come from patent publication US4753958A, “Photochemotherapy of epithelial diseases with derivatives of hematoporphyrins” (priority 1986, dated 1988).

In data set [1] the test system is guinea pig skin. As to the kind of experiment: Cutaneous phototoxicity after systemic (I.P.) administration and UVA. It counts as in vivo, Guinea pigs. As to conditions: 10 mg/kg I.P., graded 24 hours post light. The protocol:
(§1) HPD, DHE, hematoporphyrin and protoporphyrin were provided by Dr. Thomas J. Dougherty, Roswell Park Memorial Institute, Buffalo, NY. Hydroxyvinyldeuteroporphyrin was obtained from Porphyrin Products, Salt Lake City, UT.
Guinea pigs were treated systemically (I.P.) with the various porphyrins, each at a dose of 10 mg/kg. Animals were then irradiated with UVA (20 J/cm^2), either at 6 hours or 24 hours post drug administration. Erythema was graded at 24 hours post light treatment.

Data set [2] deals with guinea pig skin. Put plainly: Cutaneous phototoxicity after intradermal administration and UVA (minimum phototoxic dose). In kind it is in vivo. As to conditions: intradermal 5-500 μg/0.1 ml; UVA 20 J/cm^2 6 hours post injection. The protocol:
as §1
(§2) Drugs were administered intradermally at doses ranging from 5-500 μg/0.1 ml. Sites were then treated with UVA (20 J/cm^2) 6 hours post drug injection.

The test system of the next data set is epidermal DNA synthesis. Put plainly: Effect of topical DHE plus UVA on epidermal DNA synthesis in vivo. Set-up: species or system Mini-pigs. The protocol:
The topical activity of DHE was evaluated in vivo in a mini-pig model.
Mini-pigs were obtained from Charles River Laboratories, Inc. (Wilmington, MA). Drug preparations were applied to small areas of dorsal skin (ca 1 inch square) according to the selected application schedules. Six hours following the last drug application, tritiated thymidine was injected into the drug treatment sites for autoradiographic assessment of epidermal proliferation as measured by epidermal labeling index. Weinstein & Van Scott, (1965) J. Invest. Derm. 44:413.
DHE was acid precipitated from a Photofrin II solution by adjusting the pH to 3.5. The precipitated DHA was washed extensively with distilled water until the pH of the filtrate reached 6.0. The DHE powder was vacuum dried, reconstituted in distilled water, and the pH adjusted to 7.0. Aqueous DHE was then mixed with isopropanol and Azone. […] This formulation was applied to selected areas of mini-pig skin approximately 6 hours before irradiation with UVA. Epidermal DNA synthesis was assayed as described above. At 0, 24, 48, and 72 hours post-irradiation, the animals were injected at the selected sites with isotopic precursors (tritiated thymidine). The animals were biopsied one hour after isotopic injection.

The test system of the next data set is malignant cells. As to conditions: HPD enriched for DHE, administered systemically; cited from earlier work.
The test system of data set [3] is guinea pig skin. As to the kind of experiment: Drug/UVA dosimetry with intradermal HPD and DHE. In kind it is in vivo. The protocol: as §1, §2
Additional studies were done with intradermal HPD and DHE to study the drug/UVA dosimetry.

In another data set the test system is skin cancers. Particulars: cited from earlier work.
Another data set deals with psoriasis. Particulars: oral methoxysalen plus long-wave ultraviolet light (PUVA); cited from earlier work.

As to `C=CC1=C(C)c2cc3[nH]c(cc4nc(cc5[nH]c(cc1n2)c(C)c5CCC(=O)O)C(CCC(=O)O)=C4C)c(C)c3C=C` [protoporphyrin], in the data set with guinea pig skin [1] (UVA 20 J/cm^2 at 6 hours), the erythema response entry was “No response”.
Turning to `CC1=C(CCC(=O)O)c2cc3[nH]c(cc4nc(cc5[nH]c(cc1n2)c(C)c5C(C)O)C(C)=C4C(C)O)c(C)c3CCC(=O)O` (stereo not shown) [hematoporphyrin], the erythema response result in the data set with guinea pig skin [1] (UVA 20 J/cm^2 at 6 hours) was “mild response”.
Consider Hydroxyvinyldeuteroporphyrin, for which the minimum phototoxic dose in the data set with guinea pig skin [2] is above 500 µg. The erythema response result in the data set on guinea pig skin [1] (UVA 20 J/cm^2 at 6 hours) is given as “No response”.
Consider dihematoporphyrin ether [DHE], for which, in the data set on guinea pig skin [2], the minimum phototoxic dose turned out to be 5 µg. Further, the erythema response entry in the data set with guinea pig skin [1] (UVA 20 J/cm^2 at 6 hours) is “significant response”; with guinea pig skin [1] (UVA 20 J/cm^2 at 24 hours, compared with 6 hours for HPD and DHE), “greater”. Moreover, the “time of maximum effect post light treatment” value with epidermal DNA synthesis (1% DHE topical plus UVA, autoradiographically and clinically) worked out at 72 h. Also, the “inhibition of DNA synthesis compared to vehicle control plus UVA” value in the data set on epidermal DNA synthesis (1% DHE topical, 48% isopropanol, 4% Azone, 48% water, 5-10 applications plus UVA, FIG. 1) is “significant inhibition of DNA synthesis”. Moreover, the “phototoxicity toward malignant cells” value in the data set with malignant cells is listed as “phototoxic properties toward malignant cells”. Also, in the data set with guinea pig skin [3] (intradermal), the “erythema, UVA at 24 hours vs 6 hours post injection” value was “more pronounced erythema”. Besides, the “UVA dose effective in producing erythema” value in the data set on guinea pig skin [3] (intradermal DHE 5 μg/cm^2) was 1 J/cm^2. Further, the “erythema response compared with HPD” value with guinea pig skin [3] (intradermal DHE 5 μg/cm^2, comparable treatments) is reported as “slightly greater than with comparable treatments with HPD”. Besides, in the data set on guinea pig skin [3] (intradermal, local drug diffusion from injection site), the “area of erythema, UVA at 24 hours vs 6 hours post injection” value was “larger area of erythema”.
`COc1c2occc2cc2ccc(=O)oc12` [methoxysalen]: the “skin cancers in patients following PUVA” value with skin cancers is recorded as “increased pattern of skin cancers”. Besides, in the data set on psoriasis, the “clinical effectiveness in psoriasis” value was “relatively effective for the majority of patients”.
